Assay results: patent US6933126B2, “Membrane transportable fluorescent substrates” (Applera Corporation, priority 2001, dated 2005)

Assays:
[1] = biological target: T1, β-galactosidase in Psi-2-BAG-α cells (Escherichia coli, UniProt P00722); assay: FDG detection of β-galactosidase in Psi-2-BAG-α cells, passive load vs "SUPERFECT" complex; type: cell-based; conditions: for Fluorescence (w "SUPERFECT") / Fluorescence (w/o "SUPERFECT"): Cells + Supernatant, 2 hrs, ex 485/20, em 530/25; for Fluorescence (w "SUPERFECT"): 0.6 mM FDG with 25 μl "SUPERFECT" carrier; for Fluorescence (w/o "SUPERFECT"): 0.6 mM FDG, passive load
T1 construct: expressed in transfected cells; host or cells: Psi-2-BAG-α cells (own knowledge: mouse NIH-3T3-derived psi-2 packaging line stably carrying the BAG lacZ retroviral vector)
T1 sequence (P00722 whole entry): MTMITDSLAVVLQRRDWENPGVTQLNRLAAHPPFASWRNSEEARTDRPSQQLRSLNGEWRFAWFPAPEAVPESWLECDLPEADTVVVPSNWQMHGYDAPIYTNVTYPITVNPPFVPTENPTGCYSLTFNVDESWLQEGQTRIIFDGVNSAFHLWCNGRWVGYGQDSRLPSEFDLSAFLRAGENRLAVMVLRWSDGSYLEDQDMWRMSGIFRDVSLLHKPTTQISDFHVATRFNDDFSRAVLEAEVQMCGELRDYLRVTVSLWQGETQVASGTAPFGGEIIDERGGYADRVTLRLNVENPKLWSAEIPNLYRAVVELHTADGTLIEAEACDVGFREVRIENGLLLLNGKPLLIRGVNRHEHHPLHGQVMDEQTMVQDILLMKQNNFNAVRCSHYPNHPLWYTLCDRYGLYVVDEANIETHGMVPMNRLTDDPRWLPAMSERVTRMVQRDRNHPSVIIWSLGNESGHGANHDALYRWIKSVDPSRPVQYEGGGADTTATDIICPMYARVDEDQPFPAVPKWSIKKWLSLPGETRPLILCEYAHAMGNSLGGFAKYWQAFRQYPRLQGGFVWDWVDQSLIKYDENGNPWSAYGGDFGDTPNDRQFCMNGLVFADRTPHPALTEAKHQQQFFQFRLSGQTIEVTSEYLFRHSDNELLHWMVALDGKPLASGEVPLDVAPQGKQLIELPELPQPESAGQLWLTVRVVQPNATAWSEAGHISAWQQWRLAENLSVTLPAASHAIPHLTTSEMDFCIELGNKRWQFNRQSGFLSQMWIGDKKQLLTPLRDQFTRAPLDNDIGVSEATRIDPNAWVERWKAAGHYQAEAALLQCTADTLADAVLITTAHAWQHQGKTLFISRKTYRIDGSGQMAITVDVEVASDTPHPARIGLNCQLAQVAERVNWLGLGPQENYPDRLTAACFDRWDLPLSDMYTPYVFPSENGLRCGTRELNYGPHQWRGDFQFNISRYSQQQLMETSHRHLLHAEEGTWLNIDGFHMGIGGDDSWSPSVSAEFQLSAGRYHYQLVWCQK
Method: A first experiment was conducted to determine the effect of complex formation on FDG detection of β-galactosidase in Psi-2-BAG-α cells. First, FDG detection was measured using FDG without a transporter or carrier complexed thereto (passive load). This measured value was compared to a measurement using a complex of FDG and an activated polyamino dendrimer (e.g., “SUPERFECT”, which is a trademark of Qiagen N.V.).
For the passive load test, two vials of cells were prepared. First, two vials each having 330,000 psi-2-BAG-α cells suspended in 250 μl 0.6 mM FDG in Opti-MEM were prepared. A first vial of cells was incubated at 4° C. for 2 hrs and the second vial of cells was incubated at 37° C. for 2 hrs.
For the polyamino dendrimer complex, two vials of cells were prepared in the following manner. First, two vials each having 330,000 psi-2-BAG-α cells suspended in 250 μl 0.6 mM FDG in Opti-MEM containing 25 μl “SUPERFECT” as a polycationic carrier were prepared. The first vial of cells was incubated at 4° C. for 2 hrs and the second vial of cells was incubated at 37° C. for 2 hrs.
Following incubation, 20 μl triplicate samples of the above four cell suspensions (passive/4° C., passive/37° C., “SUPERFECT”/4° C., “SUPERFECT”/37° C.) were added to a 96-well plate.
(§1) The 96-well plate was read on a Cytofluor 4000 with excitation filter 485/20 and emission filter 530/25. The data was analyzed as triplicate averages.

[2] = tested on: β-galactosidase complementation in FRAP/FKBP12 (B14) cells; assay: FDG detection of rapamycin-induced β-galactosidase complementation in FRAP/FKBP12 (B14) cells; type: cell-based; conditions: for Fluorescence (w "SUPERFECT") / Fluorescence (w/o "SUPERFECT"): 90 min at 37° C.; for Fluorescence (w "SUPERFECT"): 0.6 mM FDG with "SUPERFECT" carrier; for Fluorescence (w/o "SUPERFECT"): 0.6 mM FDG, passive load; for Fluorescence signal to noise ratio (S/N): Induced cells
Method: A second experiment was conducted to determine the effect of fluorescent substrate complex formation on FDG detection of rapamycin-induced β-galactosidase complementation in FRAP/FKBPI2 (B14) cells.
A 96-well plate was plated with FRAP/FKBP12 cells at 10,000 cells per well. Half of the cells were incubated overnight with rapamycin to induce β-galactosidase complementation. The next day, the cells were washed with Opti-MEM. Half of the cells were incubated for 90 min at 37° C. with 254 μl 0.6 mM FDG (fluorescein-di-β-D-galactoside) in Opti-MEM. The remaining cells were incubated 90 min at 37° C. with 0.6 mM FDG, containing “SUPERFECT” as a carrier (14 μl “SUPERFECT” in 240 μl 0.6 mM FDG in Opti-MEM).
as §1

[3] = Induced cells (rapamycin overnight)

## O=C1OC2(c3ccc(O[C@@H]4O[C@H](CO)[C@H](O)[C@H](O)[C@H]4O)cc3Oc3cc(O[C@@H]4O[C@H](CO)[C@H](O)[C@H](O)[C@H]4O)ccc32)c2ccccc21 [FDG, fluorescein di-β-D-galactopyranoside]
[1]; 4° C.
  Fluorescence (w "SUPERFECT"): 8,343
  Fluorescence (w/o "SUPERFECT"): 807
[1]; 37° C.
  Fluorescence (w "SUPERFECT"): 33,943
  Fluorescence (w/o "SUPERFECT"): 2492
[1]; Superfect-assisted load of FDG vs passive load
  Increase of fluorescence signal with Superfect-assisted load: ≥ 10 fold
[2]; [3]
  Fluorescence (w "SUPERFECT"): 12,721
  Fluorescence (w/o "SUPERFECT"): 594
[2]; "SUPERFECT" assisted load of FDG
  Fluorescence signal to noise ratio (S/N): approximately 37
[2]; uncomplexed or passive load of FDG (w/o "SUPERFECT")
  Fluorescence signal to noise ratio (S/N): about 2
[2]; Uninduced cells
  Fluorescence (w "SUPERFECT"): 338
  Fluorescence (w/o "SUPERFECT"): 253
